From US20250313548A1 (Actio Biosciences, Inc., priority 2023, published 2025)
pIC50: −log10 of the molar value.

Target: human, KCNT1 (Homo sapiens (Human), UniProt Q5JUK3)
Test: FLIPR Tl/K Flux Assay
Type: cell-based
Conditions: HEK293 cells stably expressing human KCNT1; Tl+ flux stimulated with EC80 of agonist Loxapine
Procedure, shortened: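 HEK293 cells stably expressing human KCNT1 were loaded with FLIPR potassium dye in HEPES/HBSS pH 7.4 with 5 mM probenecid, 1 h at 25 °C, then given test compound for 30 min at 25 °C. Tl+ flux was triggered with chloride-free buffer containing Tl+ and EC80 loxapine and read 160 s. IC50 came from Hill fits of % inhibition.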

Sequence of human, KCNT1 (Q5JUK3 whole entry): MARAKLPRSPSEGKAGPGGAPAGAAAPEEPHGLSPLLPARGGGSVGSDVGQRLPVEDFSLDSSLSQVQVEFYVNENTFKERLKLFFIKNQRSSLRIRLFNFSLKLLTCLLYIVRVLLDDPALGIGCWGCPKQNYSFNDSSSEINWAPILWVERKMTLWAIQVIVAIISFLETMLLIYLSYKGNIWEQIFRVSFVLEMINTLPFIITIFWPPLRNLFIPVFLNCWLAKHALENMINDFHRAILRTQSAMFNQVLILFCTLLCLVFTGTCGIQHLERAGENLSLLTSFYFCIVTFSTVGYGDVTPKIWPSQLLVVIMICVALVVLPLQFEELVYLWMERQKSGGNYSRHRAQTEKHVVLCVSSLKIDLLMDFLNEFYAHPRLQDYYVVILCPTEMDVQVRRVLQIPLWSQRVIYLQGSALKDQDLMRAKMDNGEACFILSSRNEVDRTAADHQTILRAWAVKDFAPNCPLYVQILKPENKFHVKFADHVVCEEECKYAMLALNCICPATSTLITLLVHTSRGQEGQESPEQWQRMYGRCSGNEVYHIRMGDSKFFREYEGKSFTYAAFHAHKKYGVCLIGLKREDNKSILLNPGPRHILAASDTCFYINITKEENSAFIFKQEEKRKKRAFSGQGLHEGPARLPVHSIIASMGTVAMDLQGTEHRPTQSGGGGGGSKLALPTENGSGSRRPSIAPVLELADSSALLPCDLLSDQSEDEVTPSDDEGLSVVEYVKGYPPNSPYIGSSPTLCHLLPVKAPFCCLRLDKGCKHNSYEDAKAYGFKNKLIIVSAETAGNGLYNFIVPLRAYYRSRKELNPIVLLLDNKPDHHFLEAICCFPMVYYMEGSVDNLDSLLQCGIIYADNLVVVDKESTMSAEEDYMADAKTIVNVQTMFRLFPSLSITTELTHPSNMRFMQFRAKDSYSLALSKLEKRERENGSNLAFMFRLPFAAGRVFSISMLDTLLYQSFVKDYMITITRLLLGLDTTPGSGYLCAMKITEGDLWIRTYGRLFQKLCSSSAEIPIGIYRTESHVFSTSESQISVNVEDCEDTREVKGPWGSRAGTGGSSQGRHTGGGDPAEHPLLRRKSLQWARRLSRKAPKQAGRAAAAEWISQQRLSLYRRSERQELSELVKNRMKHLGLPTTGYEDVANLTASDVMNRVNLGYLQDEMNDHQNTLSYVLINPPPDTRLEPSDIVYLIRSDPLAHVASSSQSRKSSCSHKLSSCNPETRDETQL

Cn1nc(C(F)(F)F)nc1C(=O)N[C@H]1CCCc2oc(-c3ccnc(C4CC4)c3)nc21 [Compound I-229a, (S)-N-(2-(2-Cyclopropylpyridin-4-yl)-4,5,6,7-tetrahydrobenzo[d]oxazol-4-yl)-1-methyl-3-(trifluoromethyl)-1H-1,2,4-triazole-5-carboxamide]
pIC50: > 6.60

COc1cc(-c2cc3n(n2)CC[C@@H]3NC(=O)c2nc(C)nn2C)ccn1 [Compound I-230a, (S)-N-(2-(2-Methoxypyridin-4-yl)-5,6-dihydro-4H-pyrrolo[1,2-b]pyrazol-4-yl)-1,3-dimethyl-1H-1,2,4-triazole-5-carboxamide]
pIC50: < 6.00

O=C(N[C@H]1CCCc2oc(-c3ccnc(C4CC4)c3)nc21)c1cncc(C(F)(F)F)n1 [Compound I-231a]
pIC50: > 6.60

N#Cc1cccc(C(=O)N[C@H]2CCCc3oc(-c4ccnc(C5CC5)c4)nc32)c1 [Compound I-232a, (S)-3-Cyano-N-(2-(2-cyclopropylpyridin-4-yl)-4,5,6,7-tetrahydrobenzo[d]oxazol-4-yl)benzamide]
pIC50: > 6.60

Cn1nc(C(F)(F)F)cc1C(=O)N[C@H]1CCn2nc(-c3ccnc(OC(F)F)c3)cc21 [Compound I-233a, (S)-N-(2-(2-(Difluoromethoxy)pyridin-4-yl)-5,6-dihydro-4H-pyrrolo[1,2-b]pyrazol-4-yl)-1-methyl-3-(trifluoromethyl)-1H-pyrazole-5-carboxamide]
pIC50: > 6.60

O=C(N[C@H]1CCCn2nc(-c3ccnc(C(F)(F)F)c3)nc21)c1cc(F)cc(F)c1 [Compound I-234a, (S)-3,5-Difluoro-N-(2-(2-(trifluoromethyl)pyridin-4-yl)-5,6,7,8-tetrahydro-[1,2,4]triazolo[1,5-a]pyridin-8-yl)benzamide]
pIC50: > 6.60

Cc1cnc(C(F)(F)F)cc1-n1cc2c(n1)CC[C@@H]2NC(=O)c1cccc(C#N)c1 [Compound I-235a, (S)-3-Cyano-N-(2-(5-methyl-2-(trifluoromethyl)pyridin-4-yl)-2,4,5,6-tetrahydrocyclopenta[c]pyrazol-4-yl)benzamide]
pIC50: > 6.60

Cc1cnc(C(F)(F)F)cc1-c1cc2n(n1)CC[C@@H]2NC(=O)c1cc(C(F)(F)F)nn1C [Compound I-236a, (S)-1-Methyl-N-(2-(5-methyl-2-(trifluoromethyl)pyridin-4-yl)-5,6-dihydro-4H-pyrrolo[1,2-b]pyrazol-4-yl)-3-(trifluoromethyl)-1H-pyrazole-5-carboxamide]
pIC50: > 6.60

COc1cc(-c2cc3n(n2)CC[C@@H]3NC(=O)c2nc(C(F)(F)F)nn2C)ccn1 [Compound I-237a, (S)-N-(2-(2-Methoxypyridin-4-yl)-5,6-dihydro-4H-pyrrolo[1,2-b]pyrazol-4-yl)-1-methyl-3-(trifluoromethyl)-1H-1,2,4-triazole-5-carboxamide]
pIC50: > 6.60

O=C(N[C@H]1CCCc2oc(-c3ccnc(C4CC4)c3)nc21)c1cccc(C(F)(F)F)c1 [Compound I-238a, (S)-N-(2-(2-Cyclopropylpyridin-4-yl)-4,5,6,7-tetrahydrobenzo[d]oxazol-4-yl)-3-(trifluoromethyl)benzamide]
pIC50: > 6.60

COc1cc(-c2cc3n(n2)CCC[C@@H]3NC(=O)c2cccc(C#N)c2)c(Cl)cn1 [Compound I-239a, (S)-N-(2-(5-Chloro-2-methoxypyridin-4-yl)-4,5,6,7-tetrahydropyrazolo[1,5-a]pyridin-4-yl)-3-cyanobenzamide]
pIC50: > 6.60

COc1cc(-c2cc3n(n2)CC[C@@H]3NC(=O)c2cn(C(F)(F)F)nc2C)ccn1 [Compound I-240a, (S)-N-(2-(2-Methoxypyridin-4-yl)-5,6-dihydro-4H-pyrrolo[1,2-b]pyrazol-4-yl)-3-methyl-1-(trifluoromethyl)-1H-pyrazole-4-carboxamide]
pIC50: > 6.60

Cn1nc(C(F)(F)F)nc1C(=O)N[C@H]1CCCc2oc(-c3ccnc(C(F)(F)F)c3)nc21 [Compound I-241a, (S)-1-Methyl-3-(trifluoromethyl)-N-(2-(2-(trifluoromethyl)pyridin-4-yl)-4,5,6,7-tetrahydrobenzo[d]oxazol-4-yl)-1H-1,2,4-triazole-5-carboxamide]
pIC50: > 6.60

Cc1cc(C(=O)N[C@H]2CCCc3oc(-c4ccnc(C5CC5)c4)nc32)cc(C(F)(F)F)c1 [Compound I-242a, (S)-N-(2-(2-Cyclopropylpyridin-4-yl)-4,5,6,7-tetrahydrobenzo[d]oxazol-4-yl)-3-methyl-5-(trifluoromethyl)benzamide]
pIC50: > 6.60

COc1cc(-c2cc3n(n2)CC[C@@H]3NC(=O)c2cc(C(F)(F)F)nn2C)c(F)cn1 [Compound I-243a, (S)-N-(2-(5-Fluoro-2-methoxypyridin-4-yl)-5,6-dihydro-4H-pyrrolo[1,2-b]pyrazol-4-yl)-1-methyl-3-(trifluoromethyl)-1H-pyrazole-5-carboxamide]
pIC50: > 6.60

CCc1cc(C#N)cc(C(=O)N[C@H]2CCCCn3nc(-c4ccnc(C(F)(F)F)c4)cc32)c1 [Compound I-244a, (S)-3-Cyano-5-ethyl-N-(2-(2-(trifluoromethyl)pyridin-4-yl)-5,6,7,8-tetrahydro-4H-pyrazolo[1,5-a]azepin-4-yl)benzamide]
pIC50: > 6.60

CCc1cc(C#N)cc(C(=O)N[C@H]2CCCn3nc(-c4ccnc(C(F)(F)F)c4)cc32)c1 [Compound I-245a, (S)-3-Cyano-5-ethyl-N-(2-(2-(trifluoromethyl)pyridin-4-yl)-4,5,6,7-tetrahydropyrazolo[1,5-a]pyridin-4-yl)benzamide]
pIC50: > 6.60

CCc1cc(C#N)cc(C(=O)N[C@H]2CCc3nn(-c4ccnc(C(F)(F)F)c4)cc32)c1 [Compound I-246a, (S)-3-Cyano-5-ethyl-N-(2-(2-(trifluoromethyl)pyridin-4-yl)-2,4,5,6-tetrahydrocyclopenta[c]pyrazol-4-yl)benzamide]
pIC50: > 6.60

Cn1nc(C(F)(F)F)cc1C(=O)N[C@H]1CCCc2c1nc(-c1ccnc(C(F)(F)F)c1)n2C [Compound I-247a, (S)-1-Methyl-N-(1-methyl-2-(2-(trifluoromethyl)pyridin-4-yl)-4,5,6,7-tetrahydro-1H-benzo[d]imidazol-4-yl)-3-(trifluoromethyl)-1H-pyrazole-5-carboxamide]
pIC50: < 6.00

COc1cc(-c2nc3c(o2)CCC[C@@H]3NC(=O)c2cc(C)cc(C(F)(F)F)c2)ccn1 [Compound I-248a]
pIC50: > 6.60

COc1cc(-c2nc3c(o2)CCC[C@@H]3NC(=O)c2cccc(C(F)(F)F)c2)ccn1 [Compound I-249a, (S)-N-(2-(2-Methoxypyridin-4-yl)-4,5,6,7-tetrahydrobenzo[d]oxazol-4-yl)-3-(trifluoromethyl)benzamide]
pIC50: > 6.60

Cc1cc(C(=O)N[C@H]2CCCc3oc(-c4ccnc(C(F)(F)F)c4)nc32)cc(C(F)(F)F)c1 [Compound I-250a, (S)-3-Methyl-5-(trifluoromethyl)-N-(2-(2-(trifluoromethyl)pyridin-4-yl)-4,5,6,7-tetrahydrobenzo[d]oxazol-4-yl)benzamide]
pIC50: > 6.60

O=C(N[C@H]1CCCc2oc(-c3ccnc(C(F)(F)F)c3)nc21)c1cccc(C(F)(F)F)c1 [Compound I-251a, (S)-3-(Trifluoromethyl)-N-(2-(2-(trifluoromethyl)pyridin-4-yl)-4,5,6,7-tetrahydrobenzo[d]oxazol-4-yl)benzamide]
pIC50: > 6.60

CCOc1cc(-c2cc3n(n2)CCC[C@@H]3NC(=O)c2cc(F)cc(C#N)c2)ccn1 [Compound I-252a, (S)-3-Cyano-N-(2-(2-ethoxypyridin-4-yl)-4,5,6,7-tetrahydropyrazolo[1,5-a]pyridin-4-yl)-5-fluorobenzamide]
pIC50: > 6.60

COc1cc(-c2cc3n(n2)CC[C@@H]3NC(=O)c2cc(F)cc(Cl)c2)ccn1 [Compound I-253a, (S)-3-Chloro-5-fluoro-N-(2-(2-methoxypyridin-4-yl)-5,6-dihydro-4H-pyrrolo[1,2-b]pyrazol-4-yl)benzamide]
pIC50: > 6.60

CCOc1cc(-c2cc3n(n2)CC[C@@H]3NC(=O)c2cc(C(F)(F)F)nn2C)ccn1 [Compound I-254a, (S)-N-(2-(2-Ethoxypyridin-4-yl)-5,6-dihydro-4H-pyrrolo[1,2-b]pyrazol-4-yl)-1-methyl-3-(trifluoromethyl)-1H-pyrazole-5-carboxamide]
pIC50: > 6.60

COc1cc(-c2cc3n(n2)CC[C@@H]3NC(=O)c2cnn(C(F)(F)F)c2)ccn1 [Compound I-255a, (S)-N-(2-(2-Methoxypyridin-4-yl)-5,6-dihydro-4H-pyrrolo[1,2-b]pyrazol-4-yl)-1-(trifluoromethyl)-1H-pyrazole-4-carboxamide]
pIC50: > 6.60

COc1cc(-c2cc3n(n2)CCCC[C@@H]3NC(=O)c2ccc(F)c(C#N)c2)ccn1 [Compound I-256a, (S)-3-Cyano-4-fluoro-N-(2-(2-methoxypyridin-4-yl)-5,6,7,8-tetrahydro-4H-pyrazolo[1,5-a]azepin-4-yl)benzamide]
pIC50: > 6.60

COc1cc(-c2cc3n(n2)CC[C@@H]3NC(=O)c2ccc(F)c(C#N)c2)ccn1 [Compound I-257a, (S)-3-Cyano-4-fluoro-N-(2-(2-methoxypyridin-4-yl)-5,6-dihydro-4H-pyrrolo[1,2-b]pyrazol-4-yl)benzamide]
pIC50: > 6.60

COc1cc(C#N)cc(C(=O)N[C@H]2CCn3nc(-c4ccnc(C(F)(F)F)c4)cc32)c1 [Compound I-258a, (S)-3-Cyano-5-methoxy-N-(2-(2-(trifluoromethyl)pyridin-4-yl)-5,6-dihydro-4H-pyrrolo[1,2-b]pyrazol-4-yl)benzamide]
pIC50: > 6.60

COc1cc(-n2cc3c(n2)CC[C@@H]3NC(=O)c2ccc(F)c(C#N)c2)ccn1 [Compound I-259a, (S)-3-Cyano-4-fluoro-N-(2-(2-methoxypyridin-4-yl)-2,4,5,6-tetrahydrocyclopenta[c]pyrazol-4-yl)benzamide]
pIC50: > 6.60

COc1cc(-c2nc3n(n2)CCC[C@@H]3NC(=O)c2cc(C(F)(F)F)nn2C)ccn1 [Compound I-260a, (S)—N-(2-(2-Methoxypyridin-4-yl)-5,6,7,8-tetrahydro-[1,2,4]triazolo[1,5-a]pyridin-8-yl)-1-methyl-3-(trifluoromethyl)-1H-pyrazole-5-carboxamide]
pIC50: 6.30 to 6.60
